Counter-ions that a name gives are not always drawn.
tested on: Toxoplasma gondii RH-2F tachyzoites; experiment: microbe, parasite or virus in culture; conditions: 72 h, read-out: Parasite inhibition (%) mean

Row | SMILES | inhibition of growth at 5 µM [%]
1 | CNC[C@H](O)c1ccc(O)c(O)c1 [L-Adrenaline (Epinephrine)] | 0.4
2 | O[C@@H](COc1cccc2ncccc12)CN1CCN([C@@H]2c3ccccc3[C@@H]3[C@H](c4ccccc42)C3(F)F)CC1 [LY335979 (Zosuquidar 3HCl)] | -7.9
3 | c1ccc([C@H]2CN3CCSC3=N2)cc1 [Levamisole Hydrochloride (Ergamisol)] | 63.9

same assay, conditions: 72 h, read-out: Parasite inhibition (%) mean, preliminary screen of compound library, mean

Row | SMILES | inhibition of growth at 5 µM [%]
4 | C[C@@H](O)[C@H]1C(=O)N2C(C(=O)O)=C(S[C@@H]3CN[C@H](CNS(N)(=O)=O)C3)[C@H](C)[C@H]12 [Doripenem Hydrate] | 0.8
5 | C=C1/C(=C/C=C2\CCC[C@@]3(C)[C@H]2CC[C@H]3[C@H](C)/C=C/[C@@H](C)C(C)C)C[C@H](O)C[C@@H]1O [Doxercalciferol (Hectorol)] | 0.1
6 | CCCCc1oc2ccc(NS(C)(=O)=O)cc2c1C(=O)c1ccc(OCCCN(CCCC)CCCC)cc1 [Dronedarone HCl (Multaq)] | 2.5
7 | N[C@H](C(=O)O)[C@H](O)c1ccc(O)c(O)c1 [Droxidopa (L-DOPS)] | 39.8
8 | C=C1[C@H](CO)[C@@H](O)C[C@@H]1n1cnc2c(=O)[nH]c(N)nc21 [Entecavir hydrate] | 9.8
9 | Oc1ccc([C@H]2COc3cc(O)ccc3C2)cc1 [Equol] | -5.6
10 | COc1ccc2[nH]c([S+]([O-])Cc3ncc(C)c(OC)c3C)nc2c1 (centres unmarked) [Esomeprazole sodium (Nexium)] | 14.2
11 | Cc1cc(C#N)cc(C)c1Oc1nc(Nc2ccc(C#N)cc2)nc(N)c1Br [Etravirine (TMC125)] | 0
12 | CC(C(=O)[O][Ca][O]C(=O)C(C)c1cccc(Oc2ccccc2)c1)c1cccc(Oc2ccccc2)c1 (centres unmarked) [Fenoprofen calcium] | 27.4
13 | Clc1ccc(C(Cn2ccnc2)OCc2ccc(Sc3ccccc3)cc2)c(Cl)c1 (centres unmarked) [Fenticonazole nitrate] | 19.8
14 | CC(C)C(=O)Oc1ccc(CO)cc1[C@H](CCN(C(C)C)C(C)C)c1ccccc1 [Fesoterodine fumarate (Toviaz)] | 0.2
15 | C[C@@H](C(=O)O)c1ccc(-c2ccccc2)c(F)c1 [Flurbiprofen (Ansaid)] | -23.7
16 | C[C@@H](O[C@H]1OCCN(Cc2nn(P(=O)(O)O)c(=O)[nH]2)[C@H]1c1ccc(F)cc1)c1cc(C(F)(F)F)cc(C(F)(F)F)c1 [Fosaprepitant dimeglumine] | -2.8
17 | N[C@@H](CSCCCO)C(=O)O [Fudosteine] | 11
18 | Cc1c(Cn2c(C)nc3c(C(=O)O)cc(N4CCOCC4)cc32)cccc1C(F)(F)F [GSK2636771] | 1.7
19 | Cc1cc(SCc2sc(-c3ccc(C(F)(F)F)c(F)c3)nc2C)ccc1OCC(=O)O [GW0742] | 23.4
20 | CC(C)c1onc(-c2c(Cl)cccc2Cl)c1COc1ccc(/C=C/c2cccc(C(=O)O)c2)c(Cl)c1 [GW4064] | -7.7
21 | O=C(NCC1CCOCC1)c1cnc(Nc2ccc(Cl)cc2Cl)nc1C(F)(F)F [GW842166X] | -12
22 | COc1ccc(Cl)cc1C(=O)NCCc1ccc(S(=O)(=O)NC(=O)NC2CCCCC2)cc1 [Glyburide (Diabeta)] | 1.9

Row | SMILES | inhibition of growth at 5 µM [%]
23 | CN[C@@H]1C[C@@H](N)[C@H](O)[C@@H](O[C@@H]2O[C@H](CO)[C@H](O)[C@@H]3OC4(O[C@@H]23)O[C@H]([C@@H](N)CO)[C@H](O)[C@H](O)[C@@H]4O)[C@@H]1O (some centres unmarked) [Hygromycin B] | 40.4
24 | COc1cc(C(C)=O)ccc1OCCCN1CCC(c2noc3cc(F)ccc23)CC1 [Iloperidone (Fanapt)] | 37.8
25 | CCn1c(=O)c2c(nc(/C=C/c3ccc(OC)c(OC)c3)n2C)n(CC)c1=O [Istradefylline (KW-6002)] | -1.9
26 | CN1CCN(C(=O)c2cc3cc(Cl)ccc3[nH]2)CC1 [JNJ-7777120] | 67.4
27 | COc1ccc(CCC(=O)Nc2nc3ccc(Cl)cc3s2)cc1OC [KY02111] | -12.8
28 | COC(=O)CCSCc1ccc(-c2onc(C)c2NC(=O)OC(C)c2ccccc2Cl)cc1 (centres unmarked) [Ki16198] | 1.4
29 | Cc1cccc(-c2nn3c(c2-c2ccnc4ccc(C(N)=O)cc24)CCC3)n1 [LY2157299] | 5.2
30 | Cc1cnc(NC(=O)Nc2cc(Br)c(C)cc2OC[C@@H]2CNCCO2)cn1 [LY2603618 (IC-83)] | 22.7
31 | N[C@@H](Cc1ccc(O)c(O)c1)C(=O)O [Levodopa (Sinemet)] | 12.1
32 | C[C@H]1CNCCc2ccc(Cl)cc21 [Lorcaserin HCl] | 34.8
33 | O=C(O)[C@]1(Cc2cccc(Nc3nccs3)n2)CC[C@@H](Oc2cccc(Cl)c2F)CC1 [MK-5108 (VX-689)] | 60.4
34 | CC(C)OC(=O)C(C(=O)OC(C)C)=C1SC=CS1 [Malotilate] | 0.5
35 | COC(=O)C1=C(C)NC(C)=C(C(=O)OCCN2CCN(C(c3ccccc3)c3ccccc3)CC2)C1c1cccc([N+](=O)[O-])c1 (centres unmarked) [Manidipine (Manyper)] | 1.1
36 | CN1CCN(c2c(F)cc3c(=O)c(C(=O)O)cn4c3c2OCN4C)CC1 [Marbofloxacin] | 8.7
37 | CN1CCN2c3ncccc3Cc3ccccc3C2C1 (centres unmarked) [Mirtazapine (Remeron, Avanza)] | 33.1
38 | Fc1cc(-c2cccc3ncc(-c4cnn(C5CCNCC5)c4)nc23)cc(F)c1CN1CCOCC1 [NVP-BSK805 2HCl] | 14.6
39 | NC(=O)Cc1cccc(C(=O)c2ccccc2)c1N [Nepafenac] | -10.3
40 | CCCCCCCCOc1ccccc1C(=O)Nc1ccc(C(=O)OCC[N+](C)(CC)CC)cc1 [Otilonium Bromide] | 0.7

same assay, conditions: 72 h, read-out: Parasite inhibition (%) mean, preliminary screen, mean

Row | SMILES | inhibition of growth at 5 µM [%]
41 | O=S(=O)(O)CCSSCCS(=O)(=O)O [Dimesna] | -0.8
42 | CCCC(CCC)C(=O)O [Divalproex sodium] | 1.4
43 | CN(NC(=O)CC(=O)NN(C)C(=S)c1ccccc1)C(=S)c1ccccc1 [Elesclomol] | 0.9
44 | C[C@H](N[C@@H](CCc1ccccc1)C(=O)O)C(=O)N1CCC[C@H]1C(=O)O [Enalaprilat dihydrate] | 33.9
45 | COc1ccc2[nH]c([S+]([O-])Cc3ncc(C)c(OC)c3C)nc2c1 (centres unmarked) [Esomeprazole magnesium (Nexium)] | 1.6
46 | Cc1nc(C(=O)NCC(=O)O)c(O)c2ccc(Oc3ccccc3)cc12 [FG-4592] | 1.3
47 | CCC(=O)O[C@@H](OP(=O)(CCCCc1ccccc1)CC(=O)N1C[C@H](C2CCCCC2)C[C@H]1C(=O)O)C(C)C (some centres unmarked) [Fosinopril sodium (Monopril)] | 21.3
48 | C[C@@H](Oc1cc(-n2cnc3ccc(CN4CCN(C)CC4)cc32)sc1C(N)=O)c1ccccc1C(F)(F)F [GSK461364] | 6.6
49 | CC(C)c1noc(N2CCC(COc3ccc(-c4ccc(S(C)(=O)=O)cc4)nc3)CC2)n1 [GSK1292263] | 0.7
50 | NCC1(CC(=O)O)CCCCC1 [Gabapentin HCl] | 1.7
51 | Nc1ccn([C@@H]2O[C@H](CO)[C@@H](O)C2(F)F)c(=O)n1 [Gemcitabine (Gemzar)] | 0.1
52 | C#C[C@]1(O)C=C[C@H]2[C@@H]3CCC4=CC(=O)CC[C@@H]4[C@H]3CC[C@@]21CC [Gestodene] | 0.6
53 | NC(=O)c1ccc(I)c([N+](=O)[O-])c1 [Iniparib (BSI-201)] | 2.4
54 | c1ccc2c(CCNc3ccc(Nc4ccncc4)cc3)c[nH]c2c1 [JNJ 26854165 (Serdemetan)] | 48.9
55 | NC1=N[C@@]2(c3cc(NC(=O)c4ccc(F)cn4)ccc3F)COC[C@H]2CS1 [LY2886721] | 35.7
56 | CN(C(=O)c1ccc(F)cc1C(F)(F)F)C1CCN(c2nnc(-c3ccnn3C)c3ccccc23)CC1 [LY2940680] | 2.1

Row | SMILES | inhibition of growth at 5 µM [%]
57 | CS(=O)(=O)CCNCc1ccc(-c2ccc3ncnc(Nc4ccc(OCc5cccc(F)c5)c(Cl)c4)c3c2)o1 [Lapatinib Ditosylate (Tykerb)] | 3.3
58 | CNC(=O)c1ccc(N2C(=S)N(c3ccc(C#N)c(C(F)(F)F)c3)C(=O)C2(C)C)cc1F [MDV3100 (Enzalutamide)] | 35.7
59 | C=CCn1c(=O)c2cnc(Nc3ccc(N4CCN(C)CC4)cc3)nc2n1-c1cccc(C(C)(C)O)n1 [MK-1775] | 0
60 | NC1(c2ccc(-c3nc4ccn5c(=O)[nH]nc5c4cc3-c3ccccc3)cc2)CCC1 [MK-2206 2HCl] | 45.5
61 | O=C(O)Cn1nnc(-c2cc(N3CCC(Oc4cc(F)ccc4Br)CC3)no2)n1 [MK-8245] | 14.5
62 | O=C(O)c1ccc(Nc2ncc3c(n2)-c2ccc(Cl)cc2C(c2c(F)cccc2F)=NC3)cc1 [MLN8054] | 58.4
63 | COc1cc(Nc2ncc3c(n2)-c2ccc(Cl)cc2C(c2c(F)cccc2OC)=NC3)ccc1C(=O)O [MLN8237 (Alisertib)] | 58.9
64 | O=C(O)[C@H](CC(=O)N1C[C@H]2CCCC[C@H]2C1)Cc1ccccc1 [Mitiglinide calcium] | 0.9
65 | CCOC(=O)[C@H](CCc1ccccc1)N[C@@H](C)C(=O)N1Cc2cc(OC)c(OC)cc2C[C@H]1C(=O)O [Moexipril HCl] | 35.3
66 | Cc1ccc(S(=O)(=O)OCC(=O)Nc2ccc(C(=O)O)c(O)c2)cc1 [NSC 74859 (S3I-201)] | -25.8
67 | CNS(=O)(=O)CCc1ccc2[nH]cc(C3CCN(C)CC3)c2c1 [Naratriptan HCl] | 0.6
68 | O[C@H](CNC[C@@H](O)[C@H]1CCc2cc(F)ccc2O1)[C@@H]1CCc2cc(F)ccc2O1 [Nebivolol (Bystolic)] | 68.9
69 | CCOc1cc2ncc(C#N)c(Nc3ccc(OCc4ccccn4)c(Cl)c3)c2cc1NC(=O)/C=C/CN(C)C [Neratinib (HKI-272)] | -11.6
70 | Cc1cn(-c2cc(NC(=O)c3ccc(C)c(Nc4nccc(-c5cccnc5)n4)c3)cc(C(F)(F)F)c2)cn1 [Nilotinib (AMN-107)] | 0.1
71 | C[C@](O)(COc1ccc(C#N)cc1)C(=O)Nc1ccc(C#N)c(C(F)(F)F)c1 [Ostarine (MK-2866)] | 0.7

Source: PMC7216583 (Parasites & Vectors, 2020)
